Measurements as given in patent publication US20240366571A1, “MODULATORS OF SK4 POTASSIUM CHANNEL AND USES THEREOF” (Ramot at Tel-Aviv University Ltd., priority 2022, published 2024).
Entries after “also recorded” stand apart in the source; their conditions may differ. One block for each compound: values may come before it.

How the values were obtained:
isolated rat hearts = assay: Langendorff perfused isolated rat hearts: electrophysiology and hemodynamics; settings: 10 μM
Experimental: (§1) Animals: Adult male Sprague-Dawley rats (n=56, 200-250 grams) and Guinea pigs (n=19, 400-700 grams) obtained from Envigo Laboratories (Jerusalem, Israel) were bred and grown in Ben-Gurion University of the Negev, Israel. Experiments in rats and guinea pigs were approved by the institutional ethics committee of Ben-Gurion University of the Negev, Israel (Protocol No. IL-24-05-2020(D) and were carried out in strict accordance with the Guide for the Care and Use of Laboratory Animals of the National Institutes of Health. The animals were kept under standardized conditions: 12:12 light: dark cycles at 20-24° C. and 30-70% relative humidity.
(§2) Perfused isolated hearts—Langendorff method: The isolated heart experiment setup was performed as described in Etzion et al., Am J Physiol Heart Circ Physiol (2008) 295, H1460-1469; and Mor et al., J Pharmacol Exp Ther (2013) 344, 59-67.]. Briefly, each animal was anesthetized with 2% isoflurane and an intraperitoneal (IP) injection of pentobarbital (60 mg/kg), followed by IP injection of Heparin (1000 U/kg). The heart was rapidly excised and placed into ice-cold Tyrode's buffer solution (consisted of 140 mM NaCl, 5.4 mM KCl, 0.5 mM MgCl2, 2.5 mM CaCl2, 0.39 mM NaH2PO4, 10 mM HEPES and 11 mM glucose, and titrated to pH 7.4 with NaOH). The aorta was cannulated and connected to a pre-heated (37° C.) and oxygenated perfusion system with Tyrode's solution while perfusion pressure was maintained at about 70 mmHg throughout the experiment. Prior to the experiment, the heart was left in Tyrode's solution to stabilize for 20 minutes for hemodynamic measurements, the left atrial appendage was excised, and a collapsed latex balloon was inserted into the left ventricle (LV) through the mitral valve. Once positioned, the balloon was filled with double distilled water reaching an end-diastolic pressure of 10-15 mmHg. Coronary perfusion pressure and LV pressure were recorded by a pressure amplifier (ETH-256C amplifier and B-100 probes, iWorx, NH, USA). Electrophysiological signals were recorded from the high right atrium (HRA) via a miniature quadripolar hook electrode (for simultaneous pacing and recording) and from the LV via a bipolar hook electrode. Electrical signals were filtered (1-2 kHz) and recorded by two voltage amplifiers (Model 3000, A-M Systems, Carlsberg, WA, USA). Signals were interfaced with a PC using an A/D converter (PCI-6024E, National Instruments, Austin TX, USA) and a custom-designed program developed with LabVIEW programing language (National Instruments, Austin, TX, USA) to control signal acquisition, data saving and off-line analysis. Measured physiological parameters during the experiment included perfusion flow (ml/minute) as a marker for coronary perfusion pressure, LV developed pressure, dP/dt±(representing the rate of rise of left ventricular pressure during isovolumetric contraction as a marker for LV contractility), heart rate, PR, and RR intervals. Tram-34 and BA6b9 were applied for a 20-minutes incubation period and physiological parameters were recorded.
(§3) Effective refractory period measurements: Using both custom-made quadripolar electrode inserted on the HRA and two bipolar electrodes (recording and pacing) on the LV, allowed measurement of the effective refractory period (ERP) at the atrial level (atrial effective refractory period, AERP), atrioventricular level (AVERP), and ventricular level (VERP). For ERP measurement, a programmed S1S2 stimulation protocol was performed using double diastolic threshold intensity. The protocol consisted of ten S1-S2 intervals of 150 milliseconds (ms) followed by an S1-S2 interval that was reduced by 1 ms each time, until pacing capture failed three consecutive times. AERP, AVERP, and VERP were measured and recorded prior and after exposure to the used inhibitor, either Tram-34 or BA6b9.

[1] = system: isolated guinea pig hearts; assay: Langendorff perfused isolated guinea pig hearts; settings: 10 μM
Experimental: as §1, §2, §3

WT SK4 channels = target: T1, WT SK4 channels (Homo sapiens, UniProt O15554); assay: Inside-out macro-patch recording of WT SK4 channels in transfected CHO cells; type: cell-based; settings: 1 μM free-Ca2+
T1 construct: expressed in transfected cells; host or cells: CHO cells
Experimental: Inside-out macro-patch recording: To measure the Ca^2+ concentration dependence for SK4 channel activation, CHO cells were co-transfected with plasmids encoding WT SK4 (1 μg) and WT CaM (1 μg) using the Lipofectamine reagent at a ratio of 1:2. The cells were transfected 48 hours prior to recordings. The patch pipettes were pulled and fire-polished with a MF-900 micro-forge (Narashige) to reach an internal diameter of […]. The resistance of the patch electrodes ranged from 2-3 MΩ. The pipette solution contained 135 mM KCl, 1 mM MgSO4, 0.91 mM CaCl2, and 10 mM HEPES at pH 7.3. The bath solution contained 135 mM KCl, 5 mM EGTA, and 10 mM HEPES at pH 7.3. EGTA was used to titer the different Ca^2+ concentration solutions, calculated using the software by C. Patton of Stanford University (http://maxchelator(dot)stanford(dot)edu/). Currents were recorded by 10 repetitive 1 second duration voltage ramps from −100 mV to +100 mV from a holding potential of 0 mV. The current amplitudes in response to increasing Ca^2+ concentrations were normalized to those obtained at a saturating Ca^2+ concentration (3 μM). Furthermore, to determine the Ca^2+ concentration dependence for activation in the presence of a tested compound, such as the exemplary compound BA6b9 (10 μM), the current amplitudes were normalized to those obtained at large maximal Ca^2+ concentration of 10 μM. For PIP2-dependent activation, PIP2 affinity to the SK4 channel was also examined in the inside-out configuration. The dose-response curve for PIP2 was measured with increasing concentrations of diC8-PIP2 in the presence of 1 μM Ca^2+. The diC8-PIP2 effect on the channel current was measured after complete depletion of the native PIP2 using sonicated poly-L-lysine (PLL) 50 μg/ml and a subsequent 2-minute washout. […] Apparent EC50 values for Ca^2+ or diC8-PIP2 were determined by fitting the data points to a standard dose-response curve Y=100/(1+10^(log EC(50)−X)*HillSlope).
The calcium dependence of the human SK4 K^+ channel in transfected CHO cells was characterized using inside-out macro-patches. The expressed currents were recorded in response to voltage ramps (−100 millivolt (mV) to +100 mV for 1 seconds) and by increasing the free-Ca^2+ concentrations applied to the internal face of the membrane. […]
To examine whether PIP2 is involved in the modulation of the SK4 channel, channel trafficking to the plasma membrane was increased by co-transfecting CHO cells with plasmid DNAs encoding for the channel and for wild type (WT) CaM. The resulting currents were recorded from inside-out macro-patches, where the intracellular solution contained a saturating concentration of 1 μM free-Ca^2+, as shown in FIG. 1B (see, black plot).

human SK4 [2] = target: T2, human SK4 (Homo sapiens, UniProt O15554); assay: Whole-cell patch-clamp of WT SK4 K+ currents in transfected CHO cells; type: cell-based; settings: WT SK4 currents in absence and presence of 20 μM compound
T2 construct: expressed in transfected cells; host or cells: CHO cells
Experimental: Constructs: For CHO cell transfection, the following were cloned: human SK1, rat SK2, human SK3, and rat calmodulin into the pcDNA3 vector, human SK4 into pEGFP-C1 vector, and PIP4,5-kinase into an IRES-dsRed plasmid. The mutations were introduced using the PCR-based QuikChange™ site-directed mutagenesis (Stratagene®) and were verified by full sequencing of the entire plasmid vector.
Cell Culture and Transfection: Chinese hamster ovary (CHO) cells were grown in Dulbecco's modified Eagle's medium supplemented with 2 millimolar (mM) glutamine, 10% fetal calf serum, and antibiotics. In brief, 40,000 cells seeded on poly-L-lysine-coated glass coverslips (13 millimeter (mm) in diameter) in a 24-multiwell plate were transfected with 0.5 microgram (μg) pEGFP-SK4/0.5 μg mutant SK4, 1.2 μg dsRed-PIP4,5-kinase or with 1 μg SK1/SK2/SK3 together with pIRES-CD8 (0.3 μg) as a marker for transfection. Transfection was performed using TransIT-LT1 Transfection Reagent (Mirus Bio) according to the manufacturer's protocol. For electrophysiology, transfected cells were visualized approximately 40 hours after transfection with a Zeiss Axiovert 35 inverted florescence microscope.
Whole-cell patch-clamp recording: Voltage-clamp recordings were performed using the whole-cell configuration of the patch-clamp technique. Signals were amplified using an […] patch-clamp amplifier (Molecular Devices), sampled at 5 kHz and filtered at 2.4 kHz via a four pole Bessel low pass filter. Data were acquired using pClamp™ 10.5 software in conjunction with an Axon™ DigiData® 1440A interface (Molecular Devices). The patch pipettes were pulled from borosilicate glass (Harvard Apparatus) with a resistance of 3-5 megaohms (MΩ). The intracellular pipette solution contained 130 mM KCl, 5 mM EGTA, 10 mM HEPES, pH 7.3 (adjusted with KOH), and CaCl2 calculated for a final concentration of 1 μM free-Ca^2+, by MAXCHELATOR (WEBMAXC STANDARD) software, with sucrose added to adjust osmolarity to 290 mosM. The external solution (310 mosM) contained 140 mM NaCl, 4 mM KCl, 1.8 mM CaCl2, 1.2 mM MgCl2, 11 mM glucose, and 5.5 mM HEPES adjusted with NaOH to pH 7.3. CHO cells were held at −90 millivolt (mV) and SK4 K^+ currents were activated using a voltage ramp protocol from −100 mV to +60 mV for 150 milliseconds. Electrophysiological data analysis was performed using the Clampfit program (pClamp™ 10.5; Molecular Devices).
Some of the compounds were tested by comparing trace of WT SK4 channel currents in the absence and presence of 20 μM of the tested compound.

human SK4 [3] = target: T2, human SK4; assay: as above; type: cell-based; settings: 10 μM
WT SK2 channels = WT SK2 channels (Rattus norvegicus, UniProt P70604); settings: Zhang et al., Nat Chem Biol (2014); cited from earlier work

Compound: Clc1ccccc1C(c1ccccc1)(c1ccccc1)n1cccn1 [Tram-34, 1-[(2-chlorophenyl)diphenylmethyl]-1H-pyrazole, reference compound]
coronary flow (perfusion flow velocity) (isolated rat hearts): significantly lowered | left ventricular filling pressure (developed pressure) (isolated rat hearts): did not affect | maximal pressure change in left ventricular contractility (dP/dt max) (isolated rat hearts): reduces both parameters | minimal pressure change in left ventricular contractility (dP/dt min) (isolated rat hearts): reduces both parameters | AERP (effect) [1]: significantly prolonged | AVERP (effect) [1]: significantly prolonged | action potential activation current (atrial and ventricular pacing thresholds) [1]: Neither Tram-34 nor BA6b9 affected | coronary flow (perfusion flow velocity) [1]: no effect

Compound: poly-L-lysine hydrochloride [PLL, reference compound]
decrease (inhibition) of SK4 current (WT SK4 channels; 50 μg/ml internal application, 1 minute): 68%

activation (increase) of WT SK4 current (human SK4 [3]): 42% | activation of SK4 channel (fold) (human SK4 [3]; representative trace): about 1.4 fold
Compound: O=c1[nH]c2cc(Cl)c(Cl)cc2[nH]1 [BA40, 5,6-dichloro-1,3-dihydro-2H-benzo[d]imidazol-2-one]
SK4 K+ channel modulating activity (human SK4 [2]): activated; also recorded: activation; also recorded: Activator

activation (increase) of WT SK4 current (human SK4 [3]): 28%
Compound: O=c1[nH]c2ccc(Br)cc2[nH]1 [BA100, 5-bromo-1,3-dihydro-2H-benzo[d]imidazol-2-one]
SK4 K+ channel modulating activity (human SK4 [2]): activated; also recorded: activation; also recorded: Activator

EC50 (WT SK4 channels; internal application after PIP2 depletion by PLL, read-out: EC50 of activation of WT SK4 channels): 0.154 µM
Compound: CCCCCCCC(=O)OC[C@H](COP(=O)(O)O[C@@H]1[C@H](O)[C@H](O)[C@@H](OP(=O)(O)O)[C@H](OP(=O)(O)O)[C@H]1O)OC(=O)CCCCCCC [diC8-PIP2, dioctanoyl, phosphatidylinositol 4,5 bisphosphate, reference compound]
EC50 (WT SK2 channels): 1.9 µM
